Series [1] is described as follows: Test 4: Inhibition of cellular release of amyloid peptide 1-40. It is filed as cell-based, Chinese hamster. The conditions noted are these: Cricetulus griseus; CHO cells transfected with APP gene; 24 hours with test compound; amyloid peptide 1-40 in supernatant by sandwich ELISA. From the text:
Test 4: Inhibition of Cellular Release of Amyloid Peptide 1-40
On the technique in general: In an ELISA, binding on a coated surface is turned into a signal by an enzyme label.

Each structure is given as a SMILES string.

A word on the melting point: it is the temperature of the solid-liquid transition. Usually IC50 stands for the midpoint of a concentration-inhibition curve. A low value points to greater potency in that assay.

Turning to `CC(C)c1cccc(CN[C@H]2CS(=O)(=O)C[C@@H](Cc3ccccc3)[C@@H]2O)c1.Cl` (hydrate or solvate), the melting point was 239 to 242 °C.

Turning to `CO[C@@H](C)COCc1cccc(C[C@@H]2CS(=O)(=O)C[C@H](NCc3cccc(C(C)C)c3)[C@H]2O)c1` [Example 26, (3R,4S,5S)-3-(3-Isopropyl-benzylamino)-5-[3-((S)-2-methoxy-propoxy-methyl)-benzyl]-1,1-dioxo-hexahydro-1lambda*6*-thiopyran-4-ol], in series [1], the IC50 worked out at 4.7 µM.

As for `COc1ccc(C[C@@H]2CS(=O)(=O)C[C@H](NCc3cccc(C(C)C)c3)[C@H]2O)cc1Br.Cl`, the melting point lay in the range of 173 to 175 °C.

The compound `CC(C)c1cccc(CN[C@H]2CS(=O)(=O)C[C@@H](Cc3ccc(Nc4ccncn4)cc3)[C@@H]2O)c1` [Example 44, (3R,4S,5S)-3-(3-Isopropyl-benzylamino)-1,1-dioxo-5-[4-(pyrimidin-4-ylamino)-benzyl]-hexahydro-1lambda*6*-thiopyran-4-ol] returned a melting point of 136 to 139 °C.

For the origin of these results see US20090099207A1, “Cyclic sulfones useful as BACE inhibitors” (priority 2006, published 2009).
